Test results reported in patent US4716228A, “Condensed 2-substituted thiazole derivatives” (Farmitalia Carlo Erba S.p.A., priority 1985, dated 1987).

Experiments:
[1] = tested on: acetyl salicylic acid (ASA) induced gastric ulcers; assay: inhibition of acetyl salicylic acid (ASA) induced gastric ulcers in rats; type: in vivo; details: po; rat, p.o.; read-out: ASA Test ED50
Description: The activity of these compounds was assessed in rats in anti-ulcer and anti-secretory tests. The anti-ulcerogenic activity of the compounds of the invention is shown, for example, by the fact that they are active in the test of the inhibition of acetyl salicylic acid (ASA) induced gastric ulcers in rats (M. Hemmati et al., Pharmacology, 9, 374, 1973).

stress ulcers = assay: inhibition of stress ulcers in rats (restraint in water at 23° C. for 4 hours); type: in vivo; details: po, rat, p.o., read-out: Stress Test ED50
Description: The anti-ulcerogenic activity of the compounds of the invention is shown also by the fact that they are active in the test of the inhibition of stress ulcers in rats (restraint in water at 23° C. for 4 hours), according to the method of M. Usardi et al. (Prostaglandins, 8, 43, 1974).

[2] = tested on: duodenal ulcers, induced by cysteamine; assay: inhibition of duodenal ulcers induced in rats by cysteamine; type: in vivo; details: po; rat, p.o.; inhibition of ulcer index; read-out: Cysteamine Test ED50
Description: The inhibition of duodenal ulcers, induced in rats by cysteamine, was evaluated for the test of compounds as percentage inhibition of ucler index [sum of the lesioned areas per rat (mm^2)] according to the method of Fuji Y. et at, Jap. J. Pharm. 25, 663, 1975.

gastric secretion = assay: gastric anti-secretory activity, pylorus ligature technique; type: in vivo, rats; details: rat, i.d., read-out: Antisecretory activ. test ED50
Description: The gastric anti-secretory activity of the compounds of the invention was evaluated in rats by the pylorus ligature technique (H. Shay et al., Gastroenterology 5, 43, 1945).

histamine H2-receptor = histamine H2-receptor antagonist activity in vitro on the guinea pig right atrium; type: cell-based; details: screening dose 1.10^-5 M
Description: The compounds of the invention were assayed for histamine H2 -receptor antagonist activity in vitro on the guinea pig right atrium. Male guinea pigs were killed by a blow on the head and the heart was quickly excised and placed in oxygenated Ringer Locke solution of the following composition (g/l): NaCl 9, KCl 0.42, CaCl2 0.24, NaHCO3 0.5, Glucose 1. Atria were dissected away from the rest of the heart, freed from connective tissue, suspended in 20 ml organ bath containing Ringer Locke solution thermoregulated at 37° C., and carboxygenated with 95% O2 and 5% CO2. Atria spontaneously beating were allowed to adjust to the bath conditions for at least 30 minutes prior to the experiment. Histamine was added to the bath in cumulative fashion starting from 3×10^-7 M till 1×10^-4 M. The histamine-induced increase in atrial rate was allowed to plateau before the next successive concentration was added. After washing and waiting for the recovery of atria rate, compounds were added 5 minutes before repeating the cumulative dose response curve with histamine.
A compound is considered an H2 -receptor antagonist if it is able to shift the dose response curve of histamine to the right of the concentration <1×10^-5 M.

In the case of `CC(C)NC(=O)N1CCc2nc(N=C(N)N)sc2C1` [Example 1, 2-Guanidino-5-isopropylcarbamoyl-4,5,6,7-teteahydrothiazolo-[5,4-c]pyridine], the ED50 [1] is reported as 0.017 mg/kg, the ED50 (stress ulcers) is reported as 2.9 mg/kg and the ED50 [2] is reported as 0.4 mg/kg. The ED50 (gastric secretion) was 0.33 mg/kg and the Anti-H2 activity test (histamine H2-receptor) was “active”.
